The test system of data set [1] is mice treated with intermittent cold stress. The data set can be described thus: Intermittent cold stress model of fibromyalgia. It counts as in vivo. As to conditions: T1-11 i.p. As for the experimental part: (§1) FIGS. 10A-C show the analgesic effect of JMF3464 on a mouse model of fibromyalgia. […] Open arrows indicate the time mice received acid injection. Black arrows indicate the time mice received T1-11 (p.o.). […] The analgesic effect of JMF3464 is dose-dependent. The effective dose started from 100 μg/kg (i.p.).
Intermittent cold stress model. The fibromyalgia model was developed by Ueda's group, in which mice were treated with intermittent cold stress for 2 days (Nishiyori and Ueda, 2008 Mol Pain. 4:52). Mice treated with intermittent cold stress developed long-lasting (>2 weeks) mechanical and thermal hyperalgesia. Analgesic effects of JMF3464 (i.p. or p.o.) were tested in these mice 5 days after intermittent cold stress. Mechanical hyperalgesia was assayed by testing the withdrawal response of mouse hindpaws to 0.2-mN von Frey filament stimulation.

Data set [2] deals with SCA3 transgenic mice expressing ataxin-3-Q79. The data set can be described thus: SCA3 transgenic mice: rotarod test and NeuN staining of pontine nuclei. The settings on record: 4-month-old SCA3 transgenic mice, daily oral 1 mg per day. On the technique in general: The rotarod test checks motor coordination on a turning rod.
Description: (A) SCA3 transgenic mice were given drinking water containing vehicle (0.2% DMSO) or T1-11 (0.1 mg/ml) beginning at 4 weeks-old.
Behavioral test. Balance and coordination functions of mice were determined by performing rotarod test. Mice were placed on the moving drum of a rotarod apparatus (Accelerating Model, Ugo Basile Biological Research Apparatus), which was then accelerated until mouse fell from the drum onto a plate to stop the timer. Latency to fall was measured in four daily trials over the course of 4 days.
Immunohistochemical staining. Wild-type or SCA3 transgenic mice were anesthetized and perfused transcardially with 4% paraformaldehyde in PBS. Brain was equilibrated in Tissue-Tek embedding medium and frozen in liquid nitrogen. Coronal sections (20 μm) prepared by cryostat sectioning were permeabilized in 0.1% Triton X-100, and incubated at 4° C. for 48 hours with diluted anti-NeuN monoclonal antiserum (Chemicon). Subsequently, sections were washed and incubated with biotinylated horse anti-mouse IgG followed by incubation with avidin-biotin-horseradish peroxidase complex. The sections were then washed and developed in a diaminobenzidine solution. NeuN-positive neurons were visualized and counted by a Leica DM2500 microscope equipped with a Retiga-2000R CCD camera (QImaging) and a 3-axis computer-controlled MAC 600 motorized stage (Ludl Electronics) with the aid of StereoInvestigator software (MBF Bioscience). Each analysis included the processing of 15 brain sections per mouse.
Data set [3] can be described thus: Oral bioavailability / pharmacokinetic study in ICR mice. It counts as in vivo. As to conditions: male, mouse, plasma, oral 10 mg/kg vs intravenous 1 mg/kg. As to the method: To measure oral bioavailability of a test compound, blood samples were collected from male ICR mice (6 weeks old; 20-25 g) after oral (10 mg/kg) or intravenous (1 mg/kg) administrations of the test compound. The blood samples collected at the indicated periods were extracted with methanol containing 0.1% formic acid, and then 10 μL of each extracted sample were injected to UPLC-MSMS for quantitation.
Pharmacokinetic Study. The compound was administered as aqueous solutions in normal saline. Male ICR mice were purchased from BioLASCO Taiwan Co., Ltd. To measure oral bioavailability of test compounds (T1-11 and JMF3464), blood samples were collected from male ICR mice (6 weeks old; […]) after oral (10 mg/kg) or intravenous (1 mg/kg) administrations of test compounds. For T1-11, blood samples were collected at 2, 10, 30, 60, 120, 360 minutes after intravenous administration and at 15, 30, 45, 60, 120, 360 minutes after oral administration. For JMF3464, the blood samples were collected at 2, 10, 30, 60, 120, 240, 360, 480 minutes after intravenous administration and at 15, 30, 60, 90, 120, 240, 360, 480 minutes after oral administration. The blood samples were extracted by methanol with 0.1% formic acid, and then 10 μL of the extracted samples were injected to UPLC-MSMS to for quantitation.
The pharmacokinetic parameters were obtained using a pharmacokinetic program WinNonlin, fitting data to a noncompartmental model. […] The total plasma clearance (CL) was calculated as dose/AUCi.v.. The oral bioavailability (F) of the test compound by oral administration was calculated from the AUC0-∞ of the oral dose divided by the AUC0-∞ of the i.v. dose.

The conditions of data set [4]: background statement, species not given; cited from earlier work.
Data set [5] deals with mice with acid-induced chronic widespread pain. The data set can be described thus: Acid-induced chronic widespread pain model of fibromyalgia. It counts as in vivo. As to the method:
as §1
Acid-induced chronic widespread pain model. The fibromyalgia model was modified from the acid-induced chronic pain model established by Sluka's group (Sluka et al., 2003 Pain. 106:229-239).
Mice were briefly anesthetized with 2% vaporized isoflurane and received an i.m. injection of 20 μL genistein (1 μM) in the left gastrocnemius muscle. After 3 minutes, an injection of 20 μL acid saline (pH 4.0) was given to the same site. The mice then developed long-lasting mechanical hyperalgesia for more than 2 weeks. Analgesic effects of T1-11 (p.o. with an 0.9-mm/7-cm gavage) were tested 4 days after mice had developed the mechanical hyperalgesia. Mechanical hyperalgesia was assayed by testing the withdrawal response of mouse hindpaws to 0.2-mN von Frey filament stimulation.

The subject of data set [6] is mutant ATXN2 aggregations. Put plainly: Filter retardation assay of mutant SCA2 protein aggregation in pSCA2-104Q-EGFP-transfected cells. The data set is classed as cell-based, Rat. As to conditions: 10 μM, 24 h. As to the method: (§2) FIGS. 4A-B show the effects of T1-11 in preventing mutant SCA2 gene overexpression-induced protein aggregations and behavioral performance in SCA2 transgenic mice. (A) pSCA2-22Q-EGFP or pSCA2-104Q-EGFP-transfected cells were treated with 10 μM T1-11 or 10 μM JMF1907 (a T1-11-derived A2A-R agonist) for 24 h. Cells were harvested and subjected to a filter retardation assay or image acquisition. (B) Wild type (WT) or transgenic mice (SCA2) drank water with or without T1-11. Rotarod performance was used to measure the behavioral function of mice.
Rat PC12 cells purchased from American Type Culture Collection (ATCC; Manassas, Va., USA) were maintained in DMEM supplemented with 10% horse serum and 5% FBS and incubated in a CO2 incubator (5%) at 37° C. LIPOFECTAMINE™ 2000 (Invitrogen) was used as a vehicle to transfer plasmids into cells according to the manufacture's protocol. Plasmids were kindly provided by Dr. Pulst (Department of Neurology, University of Utah, USA). Normally, 5 μg of DNA combined with 5 μl of LIPOFECTAMINE™ 2000 was applied to each well of 6-well plates. The plating number was (1˜1.5)×10^6 cells/well. After transfections for 6 h, cells were treated with reagents for another 24 h. Images were taken with a Zeiss Axiovert 200M inverted fluorescence microscope (Göttingen, Germany).
Filter retardation assay. […]

For data set [7], the system named is SCA2 transgenic mice (ATAXN2^Q127). The data set can be described thus: Rotarod performance of SCA2 transgenic mice. The data set is classed as in vivo. The settings on record: compound in drinking water. As for the experimental part: as §2
Animals. The C57BL/6 mice were purchased from National Laboratory Animal Center (Taiwan). The transgenic mice (ATAXN2^Q127) were provided by Dr. Pulst. Mice were kept in a soundproof room under a 12/12 h light/dark cycle and controlled temperature (22±2° C.). Food and water were available ad libitum. All efforts were made to minimize the number of animals used and their pain and discomfort, according to the principles and directives of the NIH Guide for the Care and Use of Laboratory Animals. […]
Rotarod performance. […] Motor coordination was assessed using a rotarod apparatus (UGO BASILE, Comerio, Italy) at an accelerated speed (10 to 28 rpm) over a period of 5 min. […] Latency to fall was automatically recorded. […]

Molecules are shown by their SMILES. Entries after “also recorded” stand apart in the source; their conditions may differ.

In the case of `OC[C@H]1O[C@@H](n2cnc3c(NCc4ccc(O)cc4)ncnc32)[C@H](O)[C@@H]1O` [Compound T1-11, N^6-(4-hydroxybenzyl)adenosine], the “analgesic effect, i.p.” value in data set [1] is reported as “excellent analgesic effects”. Also, in data set [2], the “pontine neuronal death (NeuN staining)” value is “significantly ameliorated neuronal death in the pontine nuclei; also recorded: significantly alleviated pontine neuronal death” and the rotarod performance result is “significantly better than that of vehicle-treated ataxin-3-Q79 mice; also recorded: significantly improved rotarod performance”. The bioavailability – broadly, the share of a dose that reaches the circulation, judged against a reference dose that is usually intravenous – in data set [3] was found to be 2.8%. In addition, the “bioavailability (F)” value in data set [4] is less than 5%. Also, the “analgesic effect, i.p.” value in data set [5] (i.p.) was “excellent analgesic effects”. In addition, the “analgesic effect, oral administration” value in data set [5] (p.o., up to 2 mg/kg, von Frey mechanical hyperalgesia) was “no analgesic effect”. Also, the “mutant ATXN2 aggregations” value in data set [6] is listed as “effective is preventing mutant ATXN2 aggregations”. For the same molecule, the “behavioral performance (rotarod)” value in data set [7] is listed as “effective”.

Source of the values: patent US10301348B2, “Compounds for use in prevention and treatment of neurodegenerative diseases and pain” (Academia Sinica, priority 2013, dated 2019).
